Assay results: US8637237B2, “Methods, compositions, and systems for the identification of species-specific or developmental stage-specific insecticides” (The University of North Carolina at Greensboro, priority 2003, dated 2014)

Legend:
[1] = tested on: Drosophila melangaster EcR isoforms; experiment: Drosophila melanogaster EcR isoforms, response to ecdysteroid agonists (FIG. 8); assay type: cell-based
Protocol: Unless noted otherwise, 100 ng of each EcR and USP plasmid was transfected into 2 ml of cell culture medium. As noted above, a reporter gene carrying five tandem copies of the hsp27 ecdysone response element (Riddihough and Pelham, 1986) is attached to a constitutive thymidine kinase promoter and a luciferase reporter gene (pEcREtk-LUC) and cotransfected into the cells along with vectors expressing EcR, USP, and a constitutively active β-galactosidase gene with lipofection, following manufacturer's protocols. The subsequent measure of luciferase activity reflects ecdysteroid-inducible transcription.
The Drosophila EcR isoform vectors (A, B1, and B2) used for these experiments have been described previously (Mouillet et al, 2001). These vectors lack the F-domain, which is also not essential for in vivo function (Cherbas et al, 2003). Additionally, three different VP16-USP vectors were utilized. Construction is of the VP16-USP vectors is described below. As in the earlier study, hsp27-EcRE mediated transcriptional activity was measured by detecting the luminescence produced by luciferase in transfected cell extracts. Luciferase activity was normalized by transfection with a plasmid that constitutively expresses the β-galactosidase gene such that enzymatic activity correlated with cellular mass. […]

GGEc = biological target: T1, GGEc (Drosophila melanogaster, UniProt P34021); experiment: GGEc chimera (GR amino terminus and DBD, EcR LBD) with RXR in CHO cells; assay type: cell-based; details: 20 μM juvocimene; 0.2 μM muristerone A
T1 construct: were replaced by EcR LBD amino acids (EcR amino acids 329 to 878); expressed in transfected cells; host or cells: CHO
T1 sequence (P34021 329-878): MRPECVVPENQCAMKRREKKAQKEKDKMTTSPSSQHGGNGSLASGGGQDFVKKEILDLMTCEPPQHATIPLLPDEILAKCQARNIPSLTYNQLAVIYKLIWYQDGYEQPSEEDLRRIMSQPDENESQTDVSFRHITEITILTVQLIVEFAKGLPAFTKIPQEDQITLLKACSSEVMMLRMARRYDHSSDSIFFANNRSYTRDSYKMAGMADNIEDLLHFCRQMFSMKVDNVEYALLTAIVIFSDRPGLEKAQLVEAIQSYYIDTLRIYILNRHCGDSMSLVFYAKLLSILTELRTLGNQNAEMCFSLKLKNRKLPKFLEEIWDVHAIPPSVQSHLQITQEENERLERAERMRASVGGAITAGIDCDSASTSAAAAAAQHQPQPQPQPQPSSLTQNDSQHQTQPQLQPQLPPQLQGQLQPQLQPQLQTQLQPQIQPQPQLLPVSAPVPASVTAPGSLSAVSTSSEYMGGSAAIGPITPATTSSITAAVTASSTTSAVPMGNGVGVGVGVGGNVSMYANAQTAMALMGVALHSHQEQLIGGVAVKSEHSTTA
Source text: For these experiments, the luciferase reporter construct was used. To obviate influences from other transcription factors, results were normalized using a reporter plasmid from which CAT expression is driven by a minimal promoter consisting of dimerized GREs linked upstream of a 13 base pair TATA box DNA element derived from the adenovirus E1B gene.
In this experiment, GGEc and RXR were transfected into CHO cells with either a CAT or a luciferase reporter plasmid containing 1.5 kilobase pairs of the glucocorticoid-inducible mouse mammary tumor virus (MTV) promoter.
In these experiments, CHO cells were transfected with a GGEc-expressing plasmid, a mouse RXRα expression plasmid, and an adenovirus E1b TATA-(GRE)2-CAT reporter plasmid. The GGEc plasmid was eliminated from DNA mixtures added to cells transfected in parallel. CAT activities were measured from lysates of cells from triplicate wells treated with ethanol vehicle, juvocimene (20 μM), muristerone A (0.2 μM), or both.
In these experiments, CHO cells were transfected with DNAs as described above but ubiquinone-2 (10 μM) was substituted for juvocimene.

| Compound | stimulation of Drosophila EcR isoforms, agonists compared [1] | GGEc activity increase over MUR (GGEc) [times] |
| --- | --- | --- |
| CC(C)CC[C@@H](O)[C@](C)(O)[C@H]1CC[C@@]2(O)C3=CC(=O)[C@]4(O)C[C@@H](O)[C@@H](O)C[C@]4(C)[C@H]3[C@H](O)C[C@]12C [murA, muristerone A] | much greater stimulation by murA, than either 20E or RH 2485 |  |
| juvocimene |  | 7 |
